According to US8889874B2, “Imidazolone-chalcone derivatives as potential anticancer agent and process for the preparation thereof” (Council of Scientific and Industrial Research, priority 2010, dated 2014):
Where two headings read alike, the source gives them in different places.

Assays:
Test in all cases: NCI anticancer screen, SRB assay, 48 h
Format in all cases: cell-based, human
UACC-62 (melanoma) = settings: Homo sapiens
Procedure, shortened: (§1)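 Sulforhodamine B protein assay read cell growth after 48 h of continuous compound exposure. Dose-response curves per cell line used at least five 10-fold-diluted concentrations, within a panel of fifty-three human lines from nine tumour types.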

HT29 (colon) = settings: Homo sapiens
Procedure, shortened: as §1

[1] = test system: NCI-H522 (non-small cell lung); settings: Homo sapiens
Procedure, shortened: as §1

M14 (melanoma) = settings: Homo sapiens
Procedure, shortened: as §1

NCI/ADR-RES (ovarian) = settings: Homo sapiens, NCI/ADR-RES
Procedure, shortened: as §1

SN12C (renal) = settings: Homo sapiens, SN12C
Procedure, shortened: as §1

TK-10 (renal) = settings: Homo sapiens
Procedure, shortened: as §1

ACHN (renal) = settings: Homo sapiens
Procedure, shortened: as §1

MALME-3M (melanoma) = settings: Homo sapiens
Procedure, shortened: as §1

786-0 (renal) = settings: Homo sapiens
Procedure, shortened: as §1

[2] = test system: RPMI-8226 (leukemia cell line); settings: Homo sapiens
Procedure, shortened: as §1

COLO 205 (colon) = settings: Homo sapiens, COLO 205
Procedure, shortened: as §1

SW-620 (colon) = settings: Homo sapiens
Procedure, shortened: as §1

SNB-19 (CNS) = settings: Homo sapiens
Procedure, shortened: as §1

CAKI-1 (renal) = settings: Homo sapiens
Procedure, shortened: as §1

SK-MEL-2 (melanoma) = settings: Homo sapiens
Procedure, shortened: as §1

[3] = test system: NCI-H322M (non-small cell lung); settings: Homo sapiens
Procedure, shortened: as §1

LOX IMVI (melanoma) = settings: Homo sapiens
Procedure, shortened: as §1

SK-MEL-5 (melanoma) = settings: Homo sapiens
Procedure, shortened: as §1

[4] = test system: A549/ATCC (non-small cell lung); settings: Homo sapiens
Procedure, shortened: as §1

MCF7 (breast) = settings: Homo sapiens
Procedure, shortened: as §1

PC-3 (prostate) = settings: Homo sapiens
Procedure, shortened: as §1

SK-OV-3 (ovarian) = settings: Homo sapiens
Procedure, shortened: as §1

UACC-257 (melanoma) = settings: Homo sapiens
Procedure, shortened: as §1

KM12 (colon) = settings: Homo sapiens
Procedure, shortened: as §1

SF-268 (CNS) = settings: Homo sapiens
Procedure, shortened: as §1

[5] = test system: NCI-H226 (non-small cell lung); settings: Homo sapiens
Procedure, shortened: as §1

RXF 393 (renal) = settings: Homo sapiens
Procedure, shortened: as §1

SF-295 (CNS) = settings: Homo sapiens
Procedure, shortened: as §1

U251 (CNS) = settings: Homo sapiens
Procedure, shortened: as §1

BT-549 (breast) = settings: Homo sapiens
Procedure, shortened: as §1

[6] = test system: EKVX (non-small cell lung); settings: Homo sapiens
Procedure, shortened: as §1

OVCAR-5 (ovarian) = settings: Homo sapiens
Procedure, shortened: as §1

SF-539 (CNS) = settings: Homo sapiens
Procedure, shortened: as §1

OVCAR-3 (ovarian) = settings: Homo sapiens
Procedure, shortened: as §1

OVCAR-8 (ovarian) = settings: Homo sapiens
Procedure, shortened: as §1

[7] = 48 h exposure, SRB, read-out: GI50
[8] = read-out: pGI50 (-log of molar concentration causing 50% inhibition of net cell growth) (converted)
[9] = HT-29, 48 h exposure, SRB, read-out: GI50
[10] = HT-29, read-out: pGI50 (-log of molar concentration causing 50% inhibition of net cell growth) (converted)
[11] = NCl/ADR-RES, 48 h exposure, SRB, read-out: GI50
[12] = SN 12C, read-out: pGI50 (-log of molar concentration causing 50% inhibition of net cell growth) (converted)
[13] = Malme-3M, read-out: pGI50 (-log of molar concentration causing 50% inhibition of net cell growth) (converted)
[14] = MALME-3M, 48 h exposure, SRB, read-out: GI50
[15] = COLO205, read-out: pGI50 (-log of molar concentration causing 50% inhibition of net cell growth) (converted)
[16] = PC-3, read-out: pGI50 (-log of molar concentration causing 50% inhibition of net cell growth) (converted)
[17] = one prostate cancer cell line (PC-3), exposure at least 48 hrs, read-out: GI50
[18] = RXF 393, 48 h exposure, SRB, read-out: GI50
[19] = RXF-393, read-out: pGI50 (-log of molar concentration causing 50% inhibition of net cell growth) (converted)
[20] = U-251, 48 h exposure, SRB, read-out: GI50
[21] = U-251, read-out: pGI50 (-log of molar concentration causing 50% inhibition of net cell growth) (converted)

## COc1cc(/C=C/C(=O)c2cccc(-n3cc(-c4ccc(Cl)cc4)[nH]c3=O)c2)ccc1O [3f, 4-(4-chlorophenyl)-1-3-[(E)-3-(4-hydroxy-3-methoxyphenyl)-2-propenoyl]phenyl-2,3-dihydro-1H-2-imidazolone]
UACC-62 (melanoma); [7]
  GI50: 2.74 µM
UACC-62 (melanoma); [8]
  GI50: 2.75 µM
HT29 (colon); [9]
  GI50: 2.97 µM
HT29 (colon); [10]
  GI50: 2.95 µM
[1]; [7]
  GI50: 2.36 µM
[1]; [8]
  GI50: 2.34 µM
M14 (melanoma); [7]
  GI50: 2.86 µM
M14 (melanoma); [8]
  GI50: 2.88 µM
NCI/ADR-RES (ovarian); [11]
  GI50: 2.28 µM
NCI/ADR-RES (ovarian); [8]
  GI50: 2.29 µM
SN12C (renal); [12]
  GI50: 2.88 µM
SN12C (renal); [7]
  GI50: 2.87 µM
TK-10 (renal); [7]
  GI50: 4.67 µM
TK-10 (renal); [8]
  GI50: 4.68 µM
ACHN (renal); [7]
  GI50: 2.19 µM
ACHN (renal); [8]
  GI50: 2.19 µM
MALME-3M (melanoma); [13]
  GI50: 3.09 µM
MALME-3M (melanoma); [14]
  GI50: 3.06 µM
786-0 (renal); [7]
  GI50: 2.07 µM
786-0 (renal); [8]
  GI50: 2.09 µM
[2]; [7]
  GI50: 1.33 µM
[2]; [8]
  GI50: 1.32 µM
COLO 205 (colon); [15]
  GI50: 3.39 µM
COLO 205 (colon); [7]
  GI50: 3.4 µM
SW-620 (colon); [7]
  GI50: 2 µM
SW-620 (colon); [8]
  GI50: 2 µM
SNB-19 (CNS); [7]
  GI50: 3.17 µM
SNB-19 (CNS); [8]
  GI50: 3.16 µM
CAKI-1 (renal); [7]
  GI50: 2.64 µM
CAKI-1 (renal); [8]
  GI50: 2.63 µM
SK-MEL-2 (melanoma); [7]
  GI50: 3.66 µM
SK-MEL-2 (melanoma); [8]
  GI50: 3.63 µM
[3]; [7]
  GI50: 4.58 µM
[3]; [8]
  GI50: 4.57 µM
LOX IMVI (melanoma); [7]
  GI50: 1.63 µM
LOX IMVI (melanoma); [8]
  GI50: 1.62 µM
SK-MEL-5 (melanoma); [7]
  GI50: 1.8 µM
SK-MEL-5 (melanoma); [8]
  GI50: 1.82 µM
[4]; [7]
  GI50: 6.78 µM
[4]; [8]
  GI50: 6.76 µM
MCF7 (breast); [7]
  GI50: 2.3 µM
MCF7 (breast); [8]
  GI50: 2.29 µM
PC-3 (prostate); [16]
  GI50: 1.95 µM
PC-3 (prostate); [17]
  GI50: 1.95 µM
SK-OV-3 (ovarian); [7]
  GI50: 3.19 µM
SK-OV-3 (ovarian); [8]
  GI50: 3.16 µM
UACC-257 (melanoma); [7]
  GI50: 8.69 µM
UACC-257 (melanoma); [8]
  GI50: 8.71 µM
KM12 (colon); [7]
  GI50: 1.48 µM
KM12 (colon); [8]
  GI50: 1.48 µM
SF-268 (CNS); [7]
  GI50: 2.5 µM
SF-268 (CNS); [8]
  GI50: 2.51 µM
[5]; [7]
  GI50: 2.77 µM
[5]; [8]
  GI50: 2.75 µM
RXF 393 (renal); [18]
  GI50: 6.4 µM
RXF 393 (renal); [19]
  GI50: 6.46 µM
SF-295 (CNS); [7]
  GI50: 10.5 µM
SF-295 (CNS); [8]
  GI50: 10.5 µM
U251 (CNS); [20]
  GI50: 2.23 µM
U251 (CNS); [21]
  GI50: 2.24 µM
BT-549 (breast); [7]
  GI50: 2.52 µM
BT-549 (breast); [8]
  GI50: 2.51 µM
[6]; [7]
  GI50: 9.61 µM
[6]; [8]
  GI50: 9.55 µM
OVCAR-5 (ovarian); [7]
  GI50: 2 µM
OVCAR-5 (ovarian); [8]
  GI50: 2 µM
SF-539 (CNS); [7]
  GI50: 1.78 µM
SF-539 (CNS); [8]
  GI50: 1.78 µM
OVCAR-3 (ovarian); [7]
  GI50: 1.56 µM
OVCAR-3 (ovarian); [8]
  GI50: 1.55 µM
OVCAR-8 (ovarian); [7]
  GI50: 4.18 µM
OVCAR-8 (ovarian); [8]
  GI50: 4.17 µM

## O=C(/C=C/c1cccc(O)c1)c1cccc(-n2cc(-c3ccc4ccccc4c3)[nH]c2=O)c1 [12b, 1-3-[(E)-3-(3-hydroxyphenyl)-2-propenoyl]phenyl-4-(2-naphthyl)-2,3-dihydro-1H-2-imidazolone]
UACC-62 (melanoma); [7]
  GI50: 1.8 µM
UACC-62 (melanoma); [8]
  GI50: 1.82 µM
HT29 (colon); [9]
  GI50: 1.54 µM
HT29 (colon); [10]
  GI50: 1.55 µM
[1]; [7]
  GI50: 1.29 µM
[1]; [8]
  GI50: 1.29 µM
M14 (melanoma); [7]
  GI50: 1.49 µM
M14 (melanoma); [8]
  GI50: 1.48 µM
NCI/ADR-RES (ovarian); [11]
  GI50: 1.55 µM
NCI/ADR-RES (ovarian); [8]
  GI50: 1.55 µM
SN12C (renal); [12]
  GI50: 1.45 µM
SN12C (renal); [7]
  GI50: 1.44 µM
TK-10 (renal); [7]
  GI50: 3.45 µM
TK-10 (renal); [8]
  GI50: 3.47 µM
ACHN (renal); [7]
  GI50: 1.57 µM
ACHN (renal); [8]
  GI50: 1.58 µM
MALME-3M (melanoma); [13]
  GI50: 2.09 µM
MALME-3M (melanoma); [14]
  GI50: 2.08 µM
786-0 (renal); [7]
  GI50: 1.74 µM
786-0 (renal); [8]
  GI50: 1.74 µM
[2]; [7]
  GI50: 1.67 µM
[2]; [8]
  GI50: 1.66 µM
COLO 205 (colon); [15]
  GI50: 2.09 µM
COLO 205 (colon); [7]
  GI50: 2.09 µM
SW-620 (colon); [7]
  GI50: 0.22 µM
SW-620 (colon); [8]
  GI50: 0.219 µM
SNB-19 (CNS); [7]
  GI50: 1.32 µM
SNB-19 (CNS); [8]
  GI50: 1.32 µM
CAKI-1 (renal); [7]
  GI50: 1.45 µM
CAKI-1 (renal); [8]
  GI50: 1.45 µM
SK-MEL-2 (melanoma); [7]
  GI50: 2.31 µM
SK-MEL-2 (melanoma); [8]
  GI50: 2.29 µM
[3]; [7]
  GI50: 1.66 µM
[3]; [8]
  GI50: 1.66 µM
LOX IMVI (melanoma); [7]
  GI50: 0.85 µM
LOX IMVI (melanoma); [8]
  GI50: 0.851 µM
SK-MEL-5 (melanoma); [7]
  GI50: 1.16 µM
SK-MEL-5 (melanoma); [8]
  GI50: 1.15 µM
[4]; [7]
  GI50: 3.38 µM
[4]; [8]
  GI50: 3.39 µM
MCF7 (breast); [7]
  GI50: 0.47 µM
MCF7 (breast); [8]
  GI50: 0.468 µM
PC-3 (prostate); [16]
  GI50: 1.86 µM
PC-3 (prostate); [17]
  GI50: 1.85 µM
SK-OV-3 (ovarian); [7]
  GI50: 2.15 µM
SK-OV-3 (ovarian); [8]
  GI50: 2.14 µM
UACC-257 (melanoma); [7]
  GI50: 4.13 µM
UACC-257 (melanoma); [8]
  GI50: 4.17 µM
KM12 (colon); [7]
  GI50: 1.21 µM
KM12 (colon); [8]
  GI50: 1.2 µM
SF-268 (CNS); [7]
  GI50: 1.73 µM
SF-268 (CNS); [8]
  GI50: 1.74 µM
[5]; [7]
  GI50: 2.43 µM
[5]; [8]
  GI50: 2.45 µM
RXF 393 (renal); [18]
  GI50: 1.41 µM
RXF 393 (renal); [19]
  GI50: 1.41 µM
SF-295 (CNS); [7]
  GI50: 1.44 µM
SF-295 (CNS); [8]
  GI50: 1.45 µM
U251 (CNS); [20]
  GI50: 1.09 µM
U251 (CNS); [21]
  GI50: 1.1 µM
BT-549 (breast); [7]
  GI50: 1.89 µM
BT-549 (breast); [8]
  GI50: 1.91 µM
[6]; [7]
  GI50: 2.64 µM
[6]; [8]
  GI50: 2.63 µM
OVCAR-5 (ovarian); [7]
  GI50: 1.89 µM
OVCAR-5 (ovarian); [8]
  GI50: 1.91 µM
SF-539 (CNS); [7]
  GI50: 1.55 µM
SF-539 (CNS); [8]
  GI50: 1.55 µM
OVCAR-3 (ovarian); [7]
  GI50: 1.33 µM
OVCAR-3 (ovarian); [8]
  GI50: 1.32 µM
OVCAR-8 (ovarian); [7]
  GI50: 2.33 µM
OVCAR-8 (ovarian); [8]
  GI50: 2.34 µM
